Source: PubChem BioAssay (NCI)
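At the GI50, growth is halved. TGI is the concentration that stops growth completely.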

Legend:
Experiment in all cases: NCI tumour cell line growth inhibition, 384-well format
SF-295 CNS = test system: SF-295 CNS
NCI-H522 lung = test system: NCI-H522 lung
SF-539 CNS = test system: SF-539 CNS
HOP-62 NSCLC = test system: HOP-62 NSCLC
CCRF-CEM leukemia = test system: CCRF-CEM leukemia
NCI-H23 lung = test system: NCI-H23 lung
MOLT-4 leukemia = test system: MOLT-4 leukemia
SK-OV-3 ovarian = test system: SK-OV-3 ovarian
OVCAR-8 ovarian = test system: OVCAR-8 ovarian
SNB-75 CNS = test system: SNB-75 CNS
RXF 393 renal = test system: RXF 393 renal
SW-620 colon = test system: SW-620 colon
MCF7 breast = test system: MCF7 breast
DU-145 prostate = test system: DU-145 prostate
M14 melanoma = test system: M14 melanoma
NCI/ADR-RES ovarian = test system: NCI/ADR-RES ovarian
NCI-H226 lung = test system: NCI-H226 lung
SNB-19 CNS = test system: SNB-19 CNS
HL-60(TB) leukemia = test system: HL-60(TB) leukemia
MDA-MB-435 melanoma = test system: MDA-MB-435 melanoma
BT-549 breast = test system: BT-549 breast
MDA-MB-231 breast = test system: MDA-MB-231 breast
UACC-257 melanoma = test system: UACC-257 melanoma
U251 glioblastoma = test system: U251 glioblastoma
OVCAR-4 ovarian = test system: OVCAR-4 ovarian
OVCAR-3 ovarian = test system: OVCAR-3 ovarian
SN12C renal = test system: SN12C renal
OVCAR-5 ovarian = test system: OVCAR-5 ovarian
TK-10 renal = test system: TK-10 renal
HT29 colon = test system: HT29 colon
RPMI-8226 leukemia = test system: RPMI-8226 leukemia
HCT-15 colon = test system: HCT-15 colon
SK-MEL-2 melanoma = test system: SK-MEL-2 melanoma
CAKI-1 renal = test system: CAKI-1 renal
A549 NSCLC = test system: A549 NSCLC
SR leukemia = test system: SR leukemia
NCI-H322M lung = test system: NCI-H322M lung
786-0 renal = test system: 786-0 renal
IGROV1 ovarian = test system: IGROV1 ovarian
SK-MEL-28 melanoma = test system: SK-MEL-28 melanoma
SK-MEL-5 melanoma = test system: SK-MEL-5 melanoma
MALME-3M melanoma = test system: MALME-3M melanoma
NCI-H460 NSCLC = test system: NCI-H460 NSCLC
MDA-MB-468 breast = test system: MDA-MB-468 breast
UACC-62 melanoma = test system: UACC-62 melanoma
ACHN renal = test system: ACHN renal
EKVX NSCLC = test system: EKVX NSCLC
KM12 colon = test system: KM12 colon
HOP-92 NSCLC = test system: HOP-92 NSCLC
PC-3 prostate = test system: PC-3 prostate
A498 renal = test system: A498 renal
T-47D breast = test system: T-47D breast
SF-268 CNS = test system: SF-268 CNS
COLO 205 colon = test system: COLO 205 colon
HS 578T breast = test system: HS 578T breast

SMILES: COc1ccc(-c2ccc(/C=C/C(=O)NO)cc2)cc1
- GI50 (SF-295 CNS): 2840 nM
- TGI (SF-295 CNS): 14200 nM
- GI50 (NCI-H522 lung): 373 nM
- TGI (NCI-H522 lung): 1480 nM
- GI50 (SF-539 CNS): 525 nM
- TGI (SF-539 CNS): 2200 nM
- GI50 (HOP-62 NSCLC): 760 nM
- TGI (HOP-62 NSCLC): 2580 nM
- GI50 (CCRF-CEM leukemia): 128 nM
- TGI (CCRF-CEM leukemia): 258 nM
- GI50 (NCI-H23 lung): 728 nM
- TGI (NCI-H23 lung): 2340 nM
- GI50 (MOLT-4 leukemia): 166 nM
- TGI (MOLT-4 leukemia): 329 nM
- GI50 (SK-OV-3 ovarian): 349 nM
- TGI (SK-OV-3 ovarian): 1560 nM
- GI50 (OVCAR-8 ovarian): 562 nM
- TGI (OVCAR-8 ovarian): 2120 nM
- GI50 (SNB-75 CNS): 466 nM
- TGI (SNB-75 CNS): 4640 nM
- GI50 (RXF 393 renal): 298 nM
- TGI (RXF 393 renal): 1130 nM
- GI50 (SW-620 colon): 1820 nM
- TGI (SW-620 colon): 10200 nM
- GI50 (MCF7 breast): 1410 nM
- TGI (MCF7 breast): 4280 nM
- GI50 (DU-145 prostate): 1300 nM
- TGI (DU-145 prostate): 3540 nM
- GI50 (M14 melanoma): 1450 nM
- TGI (M14 melanoma): 3280 nM
- GI50 (NCI/ADR-RES ovarian): 527 nM
- TGI (NCI/ADR-RES ovarian): 1620 nM
- GI50 (NCI-H226 lung): 457 nM
- TGI (NCI-H226 lung): 2410 nM
- GI50 (SNB-19 CNS): 2520 nM
- TGI (SNB-19 CNS): 11900 nM
- GI50 (HL-60(TB) leukemia): 255 nM
- TGI (HL-60(TB) leukemia): 524 nM
- GI50 (MDA-MB-435 melanoma): 4260 nM
- TGI (MDA-MB-435 melanoma): 64700 nM
- GI50 (BT-549 breast): 624 nM
- TGI (BT-549 breast): 3510 nM
- GI50 (MDA-MB-231 breast): 391 nM
- TGI (MDA-MB-231 breast): 1730 nM
- GI50 (UACC-257 melanoma): 1380 nM
- TGI (UACC-257 melanoma): 8800 nM
- GI50 (U251 glioblastoma): 1190 nM
- TGI (U251 glioblastoma): 2850 nM
- GI50 (OVCAR-4 ovarian): 284 nM
- TGI (OVCAR-4 ovarian): 12200 nM
- GI50 (OVCAR-3 ovarian): 237 nM
- TGI (OVCAR-3 ovarian): 531 nM
- GI50 (SN12C renal): 1290 nM
- TGI (SN12C renal): 3810 nM
- GI50 (OVCAR-5 ovarian): 1940 nM
- TGI (OVCAR-5 ovarian): 5930 nM
- GI50 (TK-10 renal): 1820 nM
- TGI (TK-10 renal): 7230 nM
- GI50 (HT29 colon): 2720 nM
- TGI (HT29 colon): 16300 nM
- GI50 (RPMI-8226 leukemia): 262 nM
- TGI (RPMI-8226 leukemia): 548 nM
- GI50 (HCT-15 colon): 332 nM
- TGI (HCT-15 colon): 2730 nM
- GI50 (SK-MEL-2 melanoma): 472 nM
- TGI (SK-MEL-2 melanoma): 1140 nM
- GI50 (CAKI-1 renal): 1750 nM
- TGI (CAKI-1 renal): 5590 nM
- GI50 (A549 NSCLC): 431 nM
- TGI (A549 NSCLC): 11600 nM
- GI50 (SR leukemia): 195 nM
- TGI (SR leukemia): 368 nM
- GI50 (NCI-H322M lung): 3100 nM
- TGI (NCI-H322M lung): 33300 nM
- GI50 (786-0 renal): 1140 nM
- TGI (786-0 renal): 3650 nM
- GI50 (IGROV1 ovarian): 1680 nM
- TGI (IGROV1 ovarian): 5020 nM
- GI50 (SK-MEL-28 melanoma): 2600 nM
- TGI (SK-MEL-28 melanoma): 7200 nM
- GI50 (SK-MEL-5 melanoma): 421 nM
- TGI (SK-MEL-5 melanoma): 1580 nM
- GI50 (MALME-3M melanoma): 1180 nM
- TGI (MALME-3M melanoma): 3920 nM
- GI50 (NCI-H460 NSCLC): 626 nM
- TGI (NCI-H460 NSCLC): 2500 nM
- GI50 (MDA-MB-468 breast): 292 nM
- TGI (MDA-MB-468 breast): 578 nM
- GI50 (UACC-62 melanoma): 1930 nM
- TGI (UACC-62 melanoma): 4350 nM
- GI50 (ACHN renal): 2100 nM
- TGI (ACHN renal): 4230 nM
- GI50 (EKVX NSCLC): 2280 nM
- TGI (EKVX NSCLC): 11400 nM
- GI50 (KM12 colon): 1510 nM
- TGI (KM12 colon): 16000 nM
- GI50 (HOP-92 NSCLC): 986 nM
- TGI (HOP-92 NSCLC): 4190 nM
- GI50 (PC-3 prostate): 818 nM
- TGI (PC-3 prostate): 9740 nM
- GI50 (A498 renal): 1860 nM
- TGI (A498 renal): 11200 nM
- GI50 (T-47D breast): 1400 nM
- TGI (T-47D breast): 5260 nM
- GI50 (SF-268 CNS): 967 nM
- TGI (SF-268 CNS): 2870 nM
- GI50 (COLO 205 colon): 3310 nM
- TGI (COLO 205 colon): 6560 nM
- GI50 (HS 578T breast): 2850 nM
- TGI (HS 578T breast): 9630 nM
